Source: US12162850B2, “Formulations” (Betagenon AB, priority 2019, dated 2024)

Legend:
[1] = Particle size analysis of dry-milled products (laser diffraction, Shimadzu SALD-2300); format: physicochemical
Procedure: Milling was performed for Examples 1a to 1c using an air jet mill (Equipment code: CP-AJM-01; Promas engineers) with the following parameters: Micronisation was repeated in all examples by performing the air jet milling for a second time using the same parameters. This allowed the particle size D90 to be reduced to less than 10 μm. [table] Four drops of Tween 20 were added to 25 mL of water and the mixture was sonicated for 3 minutes to form the dispersant solution. 0.05 g of milled material was transferred into a 250 mL glass beaker. 25 mL of the dispersant solution (Tween 20/water mixture) was added to the beaker with continuous swirling for 2 to 3 minutes. The suspension was transferred into the measuring unit and the particle size distribution measurements were conducted in triplicate.

[2] = Single dose oral pharmacokinetic studies in rabbits; format: in vivo, male New Zealand White rabbits; conditions: for Plasma concentration, mean: 90 mg/kg b.w. oral; for Cmax / MRT last / Tmax / AUC(0-t) / AUC(0-inf) / half-life: male, New Zealand White, plasma, po
Procedure: The studies detailed below (and referred to as Examples 2 to 8) were conducted to provide comparative single dose oral pharmacokinetics data for Compound 1, as well as sodium and potassium salts of that compound, using non-coated and enteric-coated capsules in male New Zealand White rabbits.
Compound 1 was made using the process described in WO 2011/004162 and milled as described for Example 1c. The non-coated or enteric coated gelatin capsules were individually filled with 180 mg of dry-milled Compound 1 together with accompanying excipients as indicated. Both capsule types were filled with Compound 1 together with 1.8 mg of sodium docusate, 0.18 mg of PVP K30 and 9 mg of mannitol.
Similarly, Compound 2, non-coated or enteric coated gelatin capsules were individually filled with 180 mg of dry-milled Compound 2 (as obtained in Example 1f) together with 1.8 mg of sodium docusate, 0.18 mg of PVP K30 and 9 mg of mannitol.
For Compound 3, non-coated or enteric coated gelatin capsules were individually filled with 90 mg of dry-milled Compound 3 (as obtained in Example 1i) together with 0.90 mg of sodium docusate, 0.09 mg of PVP K30 and 4.50 mg of mannitol.
40 mL of the 2% w/v methyl cellulose solution was added to a 250 mL conical flask together with 10 g of 2 mm glass beads, and vigorously stirred. Compound 1 (720 mg) was slowly added to the solution and the mixture was with continuously stirred for 1 h. The homogenate was transferred to separate flask and its pH recorded. The suspension formulation was prepared before administration to the animals.
Adult healthy male New Zealand white rabbits aged approximately 2 to 3 months old were used for experimentation after 7 days of acclimatization.
To dose the filled capsules, a soft plastic dosing tube was used. The filled capsule was inserted into the dosing tube so that the short end of the capsule protrudes slightly from the tip of the tube. The tip of the capsule was dipped in mineral oil to aid swallowing.
To dose the suspension, an infant feeding tube was used. The feeding tube was inserted through the mouth of the rabbit to the oesophagus and the stomach, and ascertained that it has not been placed in the trachea before dosing to the animals. The suspension of the Compound 1 was administered through the feeding tube. After the administration of the suspension, drinking water of approximately 2.0-2.5 mL was administered to flush out the contents in the feeding tube.
The animals were restrained in a rabbit restrainer and blood samples (400-500 μL/time point) were collected via the central ear artery at 0.16, 0.25, 0.50, 1.0, 2.0, 4.0, 6.0, 8.0, 24.0, 48.0 and 72 hours post-dosing. Collected blood specimens were centrifuged at 4000 or 6000 rpm, 4° C. for 10 minutes and plasma samples were separated and stored at −80° C. until analysis.
Concentrations of the analyte of Compound 1 in New Zealand white rabbits was determined using an API 3200 Q-trap LC-MS/MS system.
Chromatographic separation was achieved on Zorbax C18, 50×4.6 mm, 5 μm column with methanol-0.1% formic acid as mobile phase with gradient elution. The flow rate was set at 1.0 mL min^−1. Detection was accomplished by a triple-quadrupole tandem mass spectrometer in multiple-reaction monitoring (MRM) scanning via electrospray ionization source, applied in the positive mode. The optimised mass transition ion-pairs for quantitation were m/z 379.999→125.000 for the compound 1 and m/z 376.165→165.00 for the ISD (Haloperidol). Calibration plots were linear over the range of 11.062 to 20594.820 ng/mL.
The data of plasma concentration to respective time points for the analyte Compound 1 were used for the pharmacokinetic analysis. Pharmacokinetic analysis was performed using non-compartmental analysis (NCA) module of Phoenix WinNonlin 6.3 software to determine the following pharmacokinetic parameters: • Cmax • Tmax • AUC0-t • AUC0-∞ • T1/2 • MRT […]

[3] = after 1st milling (air jet mill)
[4] = after 2nd milling (air jet mill)
[5] = rabbit, 25 mg/kg, enteric coated capsule with MgO, 25 mg/kg b.w. oral single dose, rabbit plasma (Example 9)
[6] = rabbit, 25 mg/kg, enteric coated capsule with mannitol, 25 mg/kg b.w. oral single dose, rabbit plasma (Example 10)
[7] = rabbit, 53 mg/kg, enteric coated capsule with MgO, 53 mg/kg b.w. (equivalent to 50 mg/kg Compound 1) oral single dose, rabbit plasma (Example 11)
[8] = rabbit, 90 mg/kg, enteric coated capsule, 90 mg/kg b.w. oral single dose, rabbit plasma (Examples 5, 6, 7)
[9] = rabbit, 90 mg/kg, non-coated capsule, 90 mg/kg b.w. oral single dose, rabbit plasma (Examples 2, 3, 4)

Particle size distribution D10 [1, 3]: 0.508 μm
Particle size distribution D50 [1, 3]: 3.58 μm
Particle size distribution D90 [1, 3]: 11.5 μm
Particle size distribution D100 [1, 3]: 31.1 μm
Particle size distribution D10 [1, 4]: 0.414 μm
Particle size distribution D50 [1, 4]: 2.70 μm
Particle size distribution D90 [1, 4]: 8.29 μm
Particle size distribution D100 [1, 4]: 24.0 μm
Particle size distribution D10 ([1]; before milling): 1.11 μm
Particle size distribution D50 ([1]; before milling): 7.62 μm
Particle size distribution D90 ([1]; before milling): 31.7 μm
Particle size distribution D100 ([1]; before milling): 185 μm
Plasma concentration, mean ([2]; 0.00 h, enteric coated capsule, rabbit): 0.000 ng/mL
Plasma concentration, mean ([2]; 0.00 h, non-coated capsule, rabbit): 0.000 ng/mL
Plasma concentration, mean ([2]; 0.16 h, enteric coated capsule, rabbit): 0.000 ng/mL
Plasma concentration, mean ([2]; 0.16 h, non-coated capsule, rabbit): 0.000 ng/mL
Plasma concentration, mean ([2]; 0.25 h, enteric coated capsule, rabbit): 0.000 ng/mL
Plasma concentration, mean ([2]; 0.25 h, non-coated capsule, rabbit): 51.798 ng/mL
Plasma concentration, mean ([2]; 0.50 h, enteric coated capsule, rabbit): 0.000 ng/mL
Plasma concentration, mean ([2]; 0.50 h, non-coated capsule, rabbit): 206.386 ng/mL
Plasma concentration, mean ([2]; 1.00 h, enteric coated capsule, rabbit): 9.027 ng/mL
Plasma concentration, mean ([2]; 1.00 h, non-coated capsule, rabbit): 594.725 ng/mL
Plasma concentration, mean ([2]; 2.00 h, enteric coated capsule, rabbit): 13.276 ng/mL
Plasma concentration, mean ([2]; 2.00 h, non-coated capsule, rabbit): 1377.183 ng/mL
Plasma concentration, mean ([2]; 4.00 h, enteric coated capsule, rabbit): 624.216 ng/mL
Plasma concentration, mean ([2]; 4.00 h, non-coated capsule, rabbit): 15776.855 ng/mL
Plasma concentration, mean ([2]; 6.00 h, enteric coated capsule, rabbit): 11866.638 ng/mL
Plasma concentration, mean ([2]; 6.00 h, non-coated capsule, rabbit): 46144.063 ng/mL
Plasma concentration, mean ([2]; 8.00 h, enteric coated capsule, rabbit): 18413.782 ng/mL
Plasma concentration, mean ([2]; 8.00 h, non-coated capsule, rabbit): 71215.612 ng/mL
Plasma concentration, mean ([2]; 24.00 h, enteric coated capsule, rabbit): 99879.409 ng/mL
Plasma concentration, mean ([2]; 24.00 h, non-coated capsule, rabbit): 98809.233 ng/mL
Plasma concentration, mean ([2]; 48.00 h, enteric coated capsule, rabbit): 101178.612 ng/mL
Plasma concentration, mean ([2]; 48.00 h, non-coated capsule, rabbit): 93029.388 ng/mL
Plasma concentration, mean ([2]; 72.00 h, enteric coated capsule, rabbit): 90966.319 ng/mL
Plasma concentration, mean ([2]; 72.00 h, non-coated capsule, rabbit): 84071.553 ng/mL
improvement in systemic exposure compared with the milled free base active ingredient ([2]; dry milled, capsules, 90 mg/kg oral, rabbit): greatest improvements
increase in the systemic exposure compared to a standard suspension of the active ingredient (example 8) ([2]; dry milled, non-coated or enteric-coated capsules, 90 mg/kg oral, rabbit): up to six-fold
systemic exposure when formulated together with an alkaline excipient ([2]; enteric coated capsule with MgO, 53 mg/kg oral, rabbit (Example 11)): significant amount of systemic exposure
AUCextrap ([2]; enteric coated capsule, 90 mg/kg b.w. oral single dose, rabbit plasma (Examples 5, 6, 7)): 88.81 ± 3.497%
systemic exposure when formulated with an alkaline excipient in comparison with formulation in the absence of an alkaline excipient ([2]; enteric coated capsules, 25 mg/kg oral, rabbit, Example 9 (MgO) vs Example 10 (mannitol)): increase
Cmax [2, 5]: 49600 ± 4800 ng/mL
MRT last [2, 5]: 27.67 ± 0.11 h
Tmax [2, 5]: 24 h
Cmax [2, 6]: 47400 ± 7060 ng/mL
MRT last [2, 6]: 30 ± 1.73 h
Tmax [2, 6]: 32 ± 13.9 h
AUC(0-t) [2, 7]: 8930 ± 1190 µg·h/mL
Cmax [2, 7]: 153000 ± 24300 ng/mL
MRT last [2, 7]: 40.9 ± 1.43 h
AUC(0-inf) [2, 8]: 55700 ± 22700 µg·h/mL
AUC(0-t) [2, 8]: 5710 ± 1140 µg·h/mL
Cmax [2, 8]: 101000 ± 17000 ng/mL
MRT last [2, 8]: 43 ± 1.59 h
Tmax [2, 8]: 32 ± 13.9 h
half-life [2, 8]: 368 ± 109 h
AUC(0-inf) [2, 9]: 38100 ± 34700 µg·h/mL
AUC(0-t) [2, 9]: 5980 ± 2270 µg·h/mL
Cmax [2, 9]: 99000 ± 34600 ng/mL
MRT last [2, 9]: 38.8 ± 1.2 h
Tmax [2, 9]: 32 ± 13.9 h
half-life [2, 9]: 227 ± 140 h
AUCextrap ([2]; non-coated capsule, 90 mg/kg b.w. oral single dose, rabbit plasma (Examples 2, 3, 4)): 79.01 ± 8.87%
Structure (SMILES): O=C(Nc1nc(=O)n(Cc2ccc(Cl)cc2)s1)c1ccc(Cl)cc1.[Na] [Compound 2, 4-chloro-N-[2-[(4-chlorophenyl)methyl]-3-oxo-1,2,4-thiadiazol-5-yl]benzamide sodium salt]
